Test results: PubChem BioAssay AID651991 (The Scripps Research Institute Molecular Screening Center, 2013)
Calls of active or inactive are those of the source.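 The calls were made as follows: active = CC50 at or below 10 µM in either panel, but not in both panels; inactive = the rest.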

Assay: viability loss in HEK293T cells – cell-based, WST-1 absorbance, serum-free and serum medium, cytotoxicity control for LYPLA1/LYPLA2 inhibitor project, dose response (AID 651991)
Conditions: 48 h

## O=C(c1cc2c(s1)-c1ccccc1S(=O)(=O)C2)N1CCN(c2ccc(Cl)cc2)CC1
With 10% FCS
  CC50: > 50 µM (inactive)
Without serum
  CC50: > 50 µM (inactive)

## O=C(CN1CCN(C(=O)c2ccco2)CC1)Nc1cc(Cl)ccc1Cl
With 10% FCS
  CC50: > 50 µM (inactive)
Without serum
  CC50: > 50 µM (inactive)

## O=C(CN1CCN(C(=O)c2ccco2)CC1)Nc1cc(C(F)(F)F)ccc1Cl
With 10% FCS
  CC50: > 50 µM (inactive)
Without serum
  CC50: > 50 µM (inactive)

## COc1ccc(N2CCN(C(=O)c3cc4c(s3)-c3ccccc3S(=O)(=O)C4)CC2)cc1
With 10% FCS
  CC50: > 50 µM (inactive)
Without serum
  CC50: > 50 µM (inactive)
